Like-named read-outs stand apart in the source and are kept apart here.
Key:
[1] = molecular target: His-tagged KRAS G12D protein (Homo sapiens (Human), UniProt P01116, G12D); assay: KRAS G12D TR-FRET Assay; type: binding
Experimental: Compounds of interest were prepared in a dose-response titration in DMSO, and 80 nL were added via Labcyte Echo to each well of a 384-well plate (Perkin Elmer 6008280). The His-tagged KRAS G12D protein (Amgen) was diluted to 20 nM in Assay Buffer (20 mM HEPES, pH 7.4, 10 mM MgCl2, 50 mM NaCl, 0.1% BSA, 0.01% Tween-20, 10 μM GDP) and 2 μL was added to the appropriate wells of the 384-well plate. The plate was incubated for 30 minutes at room temperature. Biotinylated KRPep-2d substrate (Amgen) was diluted to 20 nM in Assay Buffer and 2 μL was added to all wells and incubated for 1 hour at room temperature. Detection Reagent (0.4 nM LANCE Eu-W1024 Anti-6×His (Perkin Elmer AD0401), 5 nM streptavidin-d2 (Cisbio 610SADLA)) was prepared in Assay Buffer, then 4 μL was added to the plate and incubated for 1 hour at room temperature. Plates were read using PerkinElmer EnVision (ex: 320 nm, em1: 665 nm, em2: 615 nm) and em1/em2 data was used to generate curve fits using a 4-parameter logistic model to calculate IC50 values.

[2] = molecular target: GDP-bound KRAS protein (aa 1-169), containing both G12D and C118A amino acid substitutions (Homo sapiens (Human), UniProt P01116, C118A/G12D); assay: KRAS G12D Coupled Nucleotide Exchange Assay; type: biochemical
Experimental: KRAS G12D Coupled Nucleotide Exchange Assay
Following compound pre-incubation, purified SOS protein (aa 564-1049) and GTP (Roche 10106399001) were added to the assay wells and incubated for an additional 30 min. To determine the extent of inhibition of SOS-mediated nucleotide exchange, purified GST-tagged cRAF (aa 1-149), nickel chelate AlphaLISA acceptor beads (PerkinElmer AL108R), and AlphaScreen glutathione donor beads (PerkinElmer 6765302) were added to the assay wells and incubated for 10 minutes. The assay plates were then read on a PerkinElmer EnVision Multilabel Reader, using AlphaScreen® technology, and data were analyzed using a 4-parameter logistic model to calculate IC50 values.

[3] = read-out: KRAS G12D Binding IC50
[4] = read-out: KRAS G12D Coupled Exchange IC50

Sequence of His-tagged KRAS G12D protein (P01116 other isoform, or with tags, fused parts or gaps G12D): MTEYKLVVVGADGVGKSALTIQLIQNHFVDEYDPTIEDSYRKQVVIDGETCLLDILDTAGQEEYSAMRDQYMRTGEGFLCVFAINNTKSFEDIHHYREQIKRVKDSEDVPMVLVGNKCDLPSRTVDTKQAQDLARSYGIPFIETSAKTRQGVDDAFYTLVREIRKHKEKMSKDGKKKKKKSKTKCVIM
Sequence of GDP-bound KRAS protein (aa 1-169), containing both G12D and C118A amino acid substitutions (P01116 other isoform, or with tags, fused parts or gaps G12D/C118A): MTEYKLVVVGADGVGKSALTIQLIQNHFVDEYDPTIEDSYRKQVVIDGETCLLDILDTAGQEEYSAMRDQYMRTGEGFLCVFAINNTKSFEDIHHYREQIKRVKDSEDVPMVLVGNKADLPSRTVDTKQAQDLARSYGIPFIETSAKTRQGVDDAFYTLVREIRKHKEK

Structure (SMILES) | IC50 [1, 3] [µM] | IC50 [2, 4] [µM] | IC50 ([1]; TR-FRET, read-out: KRAS G12D Binding) [µM] | IC50 ([2]; 2 hours compound pre-incubation, read-out: KRAS G12D Coupled Exchange) [µM]
O=C1CCCc2c(F)ccc3cccc(c23)-c2ncc3c(nc(OC[C@@]45CCCN4C[C@H](F)C5)nc3c2F)N2CCOC[C@H](C2)N1 [Example 70, (16S)-23,32-difluoro-8-(((2R,7aS)-2-fluorotetrahydro-1H-pyrrolo[1,2-a]pyrrol-7a(5H)-yl)methoxy)-14-oxa-3,7,9,11,17-pentaazahexacyclo[20.7.1.1~2,6~.1~11,16~.0~5,10~.0~26,30~]dotriaconta-1(29),2(32),3,5,7,9,22,24,26(30),27-decaen-18-one] | 0.277 | 0.274 |  | 
O=C1OCCCc2c(Cl)cc3[nH]ncc3c2-c2c(F)cc3c(nc(OC[C@@]45CCCN4C[C@H](F)C5)nc3c2F)N2CCOC[C@H](C2)O1 [Example 188, m-(26S)-18-chloro-9,32-difluoro-4-(((2R,7aS)-2-fluorotetrahydro-1H-pyrrolo[1,2-a]pyrrol-7a(5H)-yl)methoxy)-23,25,28-trioxa-1,3,5,14,15-pentaazahexacyclo[24.4.1.1~6,10~.0~2,7~.0~11,19~.0~12,16~]dotriaconta-2,4,6,8,10(32),11,13,16,18-nonaen-24-one] | 0.071 | 0.044 |  | 
CN1CCC[C@H]1COc1nc2c3cnc(c(F)c3n1)-c1c(c(Cl)cc3[nH]ncc13)CCCOC(=O)O[C@@]1(C)COCCN2C1 [Example 180, (26R)-18-chloro-32-fluoro-26-methyl-4-(((2S)-1-methyl-2-pyrrolidinyl)methoxy)-23,25,28-trioxa-1,3,5,9,14,15-hexaazahexacyclo[24.4.1.1~6,10~.0~2,7~.0~11,19~.0~12,16~]dotriaconta-2,4,6,8,10(32),11,13,16,18-nonaen-24-one] | 1.51 | 0.689 |  | 
C[C@@]12COCCN(C1)c1nc(OC[C@@]34CCCN3C[C@H](F)C4)nc3c(F)c(ncc13)-c1c3c(cc4[nH]ncc14)CC[C@@H]3CCOC(=O)O2 [Example 366, (16S,22R)-34-fluoro-8-(((2R,7aS)-2-fluorotetrahydro-1H-pyrrolo[1,2-a]pyrrol-7a(5H)-yl)methoxy)-16-methyl-14,17,19-trioxa-3,7,9,11,28,29-hexaazaheptacyclo[20.9.1.1~2,6~.1~11,16~.0~5,10~.0~25,32~.0~27,31~]tetratriaconta-1(31),2(34),3,5,7,9,25(32),26,29-nonaen-18-one] | 0.938 | 0.631 |  | 
Cc1nc2c3cnc(c(F)c3n1)-c1cc(O)cc3ccc(F)c(c13)CCCC(=O)N[C@]1(C)CCCN2C1.O=C(O)C(F)(F)F [Example 14, (15R)-22,31-Difluoro-27-hydroxy-8,15-dimethyl-3,7,9,11,16-pentaazahexacyclo[19.7.1.1˜2,6˜.1˜11,15˜.0˜5,10˜.0˜25,29˜]hentriaconta-1(28),2(31),3,5,7,9,21,23,25(29),26-decaen-17-one 2,2,2-trifluoroacetate] | 0.344 | 0.296 |  | 
Fc1c2ncc3c(nc(OC[C@@]45CCCN4C[C@H](F)C5)nc13)N1CCO[C@@H](COCC[C@H]3C[C@H]3c3c(Cl)cc4[nH]ncc4c3-2)C1 [Example 393, (11R,13R,18R)-9-chloro-31-fluoro-25-(((2R,7aS)-2-fluorotetrahydro-1H-pyrrolo[1,2-a]pyrrol-7a(5H)-yl)methoxy)-16,19-dioxa-5,6,22,24,26,30-hexaazaheptacyclo[25.3.1.1~18,22~.0~2,10~.0~3,7~.0~11,13~.0~23,28~]dotriaconta-1(31),2,4,7,9,23,25,27,29-nonaene] |  |  | 1.81 | 1.17
O=C1CCCc2c(F)ccc3cccc(c23)-c2ncc3c(nc(OC[C@@]45CCCN4C[C@H](F)C5)nc3c2F)N2CCOC[C@H](C2)O1 [Example 109] | 0.18 | 0.196 |  | 
O=C1OCCCc2c(Cl)cc3[nH]ncc3c2-c2ncc3c(nc(O[C@H]4CCOC4)nc3c2F)N2CCOC[C@H](C2)O1 [Example 196, (26S)-18-chloro-32-fluoro-4-((3S)-tetrahydro-3-furanyloxy)-23,25,28-trioxa-1,3,5,9,14,15-hexaazahexacyclo[24.4.1.1~6,10~.0~2,7~.0~11,19~.0~12,16~]dotriaconta-2,4,6,8,10(32),11,13,16,18-nonaen-24-one] | 0.167 | 0.214 |  | 

— patent US20240294551A1 (AMGEN INC., priority 2022, published 2024)
